From PubChem BioAssay (NCI)
Several values for one entry are separate records, joined by “and”; a condition that tells them apart may be missing. Equal entries are not always repeated.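 Results reflect a 48-hour exposure of cells in 96-well plates to compound at five concentrations. Here, GI50 denotes the concentration required for 50% inhibition of growth. At the TGI there is no net growth.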

What was measured:
Assay in all cases: DTP human tumour cell line panel, 48 h
SNB-75 CNS = test system: SNB-75 CNS
UO-31 renal = test system: UO-31 renal
HT29 colon = test system: HT29 colon
SF-268 CNS = test system: SF-268 CNS
HOP-92 NSCLC = test system: HOP-92 NSCLC
HOP-62 NSCLC = test system: HOP-62 NSCLC
M14 melanoma = test system: M14 melanoma
A498 renal = test system: A498 renal
LOX IMVI melanoma = test system: LOX IMVI melanoma
NCI/ADR-RES ovarian = test system: NCI/ADR-RES ovarian

Structure (SMILES)	TGI (SNB-75 CNS)	TGI (UO-31 renal)	TGI (HT29 colon) [µM]	TGI (SF-268 CNS)	TGI (HOP-92 NSCLC)	TGI (HOP-62 NSCLC) [µM]	TGI (M14 melanoma)	TGI (A498 renal) [µM]	TGI (LOX IMVI melanoma)	GI50 (SNB-75 CNS)	GI50 (UO-31 renal)	GI50 (HT29 colon) [µM]	GI50 (SF-268 CNS)	GI50 (A498 renal) [µM]	GI50 (LOX IMVI melanoma) [µM]	GI50 (HOP-62 NSCLC) [µM]	GI50 (NCI/ADR-RES ovarian) [µM]	TGI (NCI/ADR-RES ovarian) [µM]	GI50 (M14 melanoma)	GI50 (HOP-92 NSCLC)
N#Cc1cccc(C2C(=O)c3ccc(C(=O)c4ccc5c(c4)C(=O)N(c4ccc(Oc6ccc(N7C(=O)c8ccc(C(=O)c9ccc%10c(c9)C(=O)N(c9cccc(C#N)c9)C%10=O)cc8C7=O)cc6)cc4)C5=O)cc3C2=O)c1 (stereo unspecified)	> 100 µM	> 100 µM	> 100	> 100 µM	> 100 µM	> 100	> 100 µM													
COc1ccc([C@@H]2OC(=O)C3C2C(=O)O[C@H]3c2ccc(OC)cc2)cc1 (stereo partly specified)	> 100 µM	> 100 µM	> 100			> 100		> 100												
CSC1=Nc2ccccc2N=C(c2ccccc2)C1	> 100 µM	> 100 µM	> 100	> 100 µM	85.3 µM	> 100	> 100 µM	> 100	32.2 µM											
CN(C)CCCCNc1ccc(NCCCCN(C)C)c2c1C(=O)c1c(O)ccc(O)c1C2=O	25.3 µM	2.93 µM	2.86	22.1 µM		3.13	3.2 µM	26.3	2.73 µM	12.8 µM	1.43 µM	1.19	10.4 µM	13.5	1.42	1.7	1.62	3.08	1.81 µM	
CC1=C(C(=O)Nc2ccc(C)cc2)C(c2cccc([N+](=O)[O-])c2)C(C(=O)Nc2ccc(C)cc2)=C(C)N1	81.4 µM	> 100 µM	49.4	52.2 µM		89.4	49.2 µM	55.3	32.3 µM											
CC[As](CC)SCC1OC(OC(C)=O)C(OC(C)=O)C(OC(C)=O)C1OC(C)=O (stereo unspecified)	52.7 µM	29.8 µM	54	25.8 µM	13.2 µM	38.3	24.7 µM	38.9	33.6 µM											
CCN(CC)CC(O)c1cc(-c2ccc(Cl)cc2)nc2c(C)c(Cl)ccc12 (stereo unspecified)	2.65 µM	2.16 µM	2.94	3.05 µM		2.96	3.48 µM		2.77 µM	1.37 µM	0.549 µM	1.55	1.61 µM		1.41	1.57	1.71	3.16	1.91 µM	
CC/C(=C(/c1ccc(OCCN(C)C)cc1)c1ccc(OC(=O)CCCCCCCCC(=O)c2c(C)[nH]c(/C=C3\N=C(c4ccc[nH]4)C=C3OC)c2C)cc1)c1ccccc1	> 100 µM	> 100 µM	> 100	> 100 µM		> 100	4.48 µM	72	5.93 µM	6.25 µM	4.45 µM	5.18	6.63 µM	15	2.36	17	31.7	> 100	2.15 µM	
O=C(NN1C(=O)CSC1c1c(Cl)cccc1Cl)C(O)c1ccccc1 (stereo unspecified)	> 100 µM	> 100 µM	> 100	> 100 µM	98.9 µM	> 100	> 100 µM	> 100	> 100 µM	32.4 µM	29.3 µM	33.1	60 µM	> 100	64.7	> 100			35.7 µM	20.9 µM
COc1ccc2nc3ccccc3c(NCCN(CCCl)CCCl)c2c1	5.72 µM	4.39 µM	61.1	5.74 µM	2.43 µM	2.97	2.28 µM	5.73												
CC(=O)O[C@@H]1CC[C@@]2(C)C(=O)C34C[C@@]5(C)C([C@@H](C)CCCC(C)C)CCC5(C)[C@](O)(O3)C(=O)[C@H]4C2C1(C)C (stereo partly specified)	29.6 µM	26 µM	25.6	34.9 µM	34.5 µM	33.1	25.8 µM	38.5	32.1 µM											
Cc1cc(Cl)cc2c1NC(=O)C2(O)C(C(=O)c1ccccc1)c1ccccc1 (stereo unspecified)	83.2 µM and 60.7 µM	> 100 µM and 48.4 µM	> 100	> 100 µM and 95.3 µM	78.7 µM and > 100 µM	> 100	> 100 µM and 55.5 µM	65.7	> 100 µM and 46.1 µM		67.6 µM and 27.3 µM		84.3 µM and 34.8 µM						90.9 µM and 22.6 µM	17.2 µM and 43.3 µM
CC1(C)C(CC(=O)O)CCCC1CC(=O)O (stereo unspecified)		> 100 µM	> 100			> 100	> 100 µM	> 100	> 100 µM									> 100		
O=C1OCC2=C1C(c1cccc(Cl)c1)c1cc3c(cc1N2CCO)CCC3 (stereo unspecified)	17.7 µM	14.2 µM	0.095	10.5 µM		14.4	4.46 µM	0.0947	13.8 µM	0.027 µM	0.0515 µM	0.0313	0.0653 µM	0.0215	0.0661	0.0478	0.0289	0.108	0.0366 µM	
CCN(CC)C(=O)CC12CCCCC1=Nc1ccccc12 (stereo unspecified)	> 100 µM		> 100		> 100 µM	> 100	> 100 µM	> 100	> 100 µM											
[CH3][Hg]/[N]=C(/N)NC#N	24.4 µM	28 µM	50.8	33.3 µM	3.84 µM	36.6	22.9 µM	31.7	14.9 µM	12.1 µM	14.7 µM	19.9	16.3 µM	17.7	3.29	19.4			10.6 µM	1.78 µM
O=C(CC1(O)C(=O)Nc2ccccc21)c1ccccc1O (stereo unspecified)	> 100 µM	> 100 µM	> 100	> 100 µM	> 100 µM	> 100	> 100 µM	> 100	> 100 µM											
O=C(CC(=O)c1cccc([N+](=O)[O-])c1)C(=O)Nc1ccccc1	> 100 µM	> 100 µM	> 100	> 100 µM	> 100 µM	> 100	> 100 µM	> 100	> 100 µM											
Cc1ccc(NC(=O)CC2SC(=Nc3ccc(Cl)cc3)NC2=O)cc1C (stereo unspecified)	33.2 µM	32.6 µM	33.2	33.4 µM	27.5 µM	> 100	31.2 µM	43.2	33.7 µM											
CN1C2(c3ccccc3)C(C(=O)c3ccccc3)=C(C(=O)c3ccccc3)C1(c1ccccc1)c1c(-c3ccccc3)sc(-c3ccccc3)c12	> 100 µM	> 100 µM	> 100	> 100 µM	> 100 µM	> 100	> 100 µM	> 100	> 100 µM											
Cc1cc(C)nc(NS(=O)(=O)c2ccc(NC(=O)COC(=O)c3cccc4c(=O)c5ccccc5[nH]c34)cc2)n1	73.5 µM	> 100 µM	> 100	> 100 µM	60.3 µM	47.4	> 100 µM	> 100	40.7 µM											
Cc1ccccc1-n1c(CCl)nc2ccc(Br)cc2c1=O	29 µM	28.2 µM	16.7	10.8 µM	36 µM	56	22.8 µM	60.8	1.46 µM											
O=C(Cc1nc2ccccc2o1)C(=O)Nc1ccc(Cl)cc1Cl	> 100 µM	> 100 µM	> 100	> 100 µM	> 100 µM	> 100	> 100 µM	> 100												
CCn1ncc(N=O)c1N	> 100 µM	> 100 µM	> 100	> 100 µM		> 100	> 100 µM		> 100 µM	22 µM and 58 µM								> 100		
CCc1ccccc1NC(=O)C(=O)C1C(=O)N(c2ccccc2)N=C1N (stereo unspecified)	> 100 µM	> 100 µM	> 100	> 100 µM	> 100 µM	> 100	> 100 µM	> 100	> 100 µM											
N#C/C(=C\c1ccc[nH]1)C(=O)c1ccccc1	> 100 µM	> 100 µM	> 100	> 100 µM	> 100 µM	> 100	> 100 µM		> 100 µM											
COC(=O)C1=CC(=O)[C@@H]2CCCC[C@H]12	> 100 µM	> 100 µM		> 100 µM		> 100	> 100 µM													
Cc1cc(C)c(/C=N/NS(=O)(=O)c2ccccc2)c(C)c1	> 100 µM	> 100 µM	> 100	> 100 µM	95.9 µM	> 100	> 100 µM	> 100	> 100 µM											
C[C@]12CCc3nn(-c4ccccc4)nc3C1CC[C@@H]1C2CC[C@]2(C)C(=O)CCC12 (stereo partly specified)	> 100 µM	> 100 µM	> 100	> 100 µM	> 100 µM	> 100	> 100 µM		> 100 µM											
COC(=O)C(C(=O)C(=O)Nc1ccccc1C)c1nc2ccc([N+](=O)[O-])cc2[nH]c1=O (stereo unspecified)	> 100 µM	> 100 µM	> 100	> 100 µM		> 100	> 100 µM	> 100	> 100 µM											
